Test results from patent US20240384268A1, “Oligonucleotides” (Hudson Institute of Medical Research, priority 2021, published 2024).
In the oligonucleotide strings, read from the 5' end, every base follows the letter of its sugar. An asterisk marks phosphorothioate; unmarked linkages are phosphodiester. Other units and linkages are bracketed, terminal groups are in braces. A string of capitals states the bases alone. d = 2'-deoxy (DNA); m = 2'-O-methyl

These substances were tested against T1, human TLR7 (Homo sapiens, UniProt Q9NYK1) (assay: HEK-TLR7 NF-κB-luciferase reporter, R848 stimulation). Conditions: ASO 100 nM; relative to R848 only, given as fraction.
T1 construct: HA; host or cells: 293XL-hTLR7-HA (HEK293)
T1 sequence (Q9NYK1 27-1049): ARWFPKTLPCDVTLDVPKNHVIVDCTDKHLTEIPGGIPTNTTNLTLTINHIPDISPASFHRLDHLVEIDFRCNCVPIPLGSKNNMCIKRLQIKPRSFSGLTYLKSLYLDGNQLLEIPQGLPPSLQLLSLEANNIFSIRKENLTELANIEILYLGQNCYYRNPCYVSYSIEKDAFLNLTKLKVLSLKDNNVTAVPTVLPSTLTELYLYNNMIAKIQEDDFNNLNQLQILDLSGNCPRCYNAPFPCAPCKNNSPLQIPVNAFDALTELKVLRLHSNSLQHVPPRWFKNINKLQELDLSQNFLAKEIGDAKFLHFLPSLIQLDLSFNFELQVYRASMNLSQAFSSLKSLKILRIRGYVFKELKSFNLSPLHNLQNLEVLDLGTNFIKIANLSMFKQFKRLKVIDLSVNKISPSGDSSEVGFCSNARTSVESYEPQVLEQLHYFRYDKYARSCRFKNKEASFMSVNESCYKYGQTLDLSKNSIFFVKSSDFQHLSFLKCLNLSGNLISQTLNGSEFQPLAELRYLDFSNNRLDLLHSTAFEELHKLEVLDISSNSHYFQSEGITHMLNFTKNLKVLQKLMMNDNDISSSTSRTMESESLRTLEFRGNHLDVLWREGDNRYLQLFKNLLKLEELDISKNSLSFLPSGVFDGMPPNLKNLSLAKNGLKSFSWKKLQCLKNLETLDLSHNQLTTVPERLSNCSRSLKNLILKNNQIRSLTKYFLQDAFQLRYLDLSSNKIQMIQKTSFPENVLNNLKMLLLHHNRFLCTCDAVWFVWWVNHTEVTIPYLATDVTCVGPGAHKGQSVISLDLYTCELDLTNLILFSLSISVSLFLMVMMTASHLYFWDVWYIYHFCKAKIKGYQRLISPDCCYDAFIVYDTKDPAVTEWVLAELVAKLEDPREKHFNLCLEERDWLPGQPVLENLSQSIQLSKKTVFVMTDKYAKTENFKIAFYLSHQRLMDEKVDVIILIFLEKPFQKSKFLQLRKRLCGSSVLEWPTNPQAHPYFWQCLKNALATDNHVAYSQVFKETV
Format: cell-based

Substance | TLR7 100 nM (averaged NF-κB-Luciferase level relative to R848 condition)
TTCAGGCGCTGCCTTG (antisense; LNA-modified, pattern not given here) [CAMSAP1-2709 LNA V1] | 0.642

Same assay, conditions: ASO 500 nM; relative to R848 only, given as fraction

Substance | TLR7 500 nM (averaged NF-κB-Luciferase level relative to R848 condition)
TTCAGGCGCTGCCTTG (antisense; LNA-modified, pattern not given here) [CAMSAP1-2709 LNA V1] | 0.181

Same assay, conditions: HEK-TLR7; 100 nM ASO; percentage of R848 without ASO (Alharbi et al., 2020)

Substance | TLR7-100 nM: averaged NF-κB-Luciferase relative to R848 [%]
mA*mA*mA*mG*mC*A*G*T*C*T*C*C*A*T*G*mU*mC*mC*mC*mA (mA*mA*mA*mG*mC*dA*dG*dT*dC*dT*dC*dC*dA*dT*dG*mU*mC*mC*mC*mA; antisense) [[CDKN2B-AS1]2237] | 27.16
mA*mA*mG*mC*mA*G*T*C*T*C*C*A*T*G*T*mC*mC*mC*mA*mG (mA*mA*mG*mC*mA*dG*dT*dC*dT*dC*dC*dA*dT*dG*dT*mC*mC*mC*mA*mG; antisense) [[CDKN2B-AS1]2236] | 35.69
mA*mG*mC*mA*mG*T*C*T*C*C*A*T*G*T*C*mC*mC*mA*mG*mG (AGCAGTCTCCATGTCCCAGG; antisense; sugars from the 5' end m5 d10 m5, all phosphorothioate, methylation of C not given here) [[CDKN2B-AS1]2235] | 25.50
mA*mG*mU*mC*mU*C*C*A*T*G*T*C*C*C*A*mG*mG*mC*mC*mU (mA*mG*mU*mC*mU*dC*dC*dA*dT*dG*dT*dC*dC*dC*dA*mG*mG*mC*mC*mU; antisense) [[CDKN2B-AS1]2232] | 35.77
mA*mG*mU*mG*mG*C*A*C*A*T*A*C*C*A*C*mA*mC*mC*mC*mU (AGUGGCACATACCACACCCU; antisense; sugars from the 5' end m5 d10 m5, all phosphorothioate, methylation of C not given here) [[CDKN2B-AS1]495] | 41.95
mA*mU*mU*mU*mC*C*A*C*A*T*G*C*C*C*A*mG*mU*mG*mU*mU (AUUUCCACATGCCCAGUGUU; antisense; sugars from the 5' end m5 d10 m5, all phosphorothioate, methylation of C not given here) [[CDKN2B-AS1]626] | 32.05
mC*mA*mG*mU*mC*T*C*C*A*T*G*T*C*C*C*mA*mG*mG*mC*mC (mC*mA*mG*mU*mC*dT*dC*dC*dA*dT*dG*dT*dC*dC*dC*mA*mG*mG*mC*mC; antisense) [[CDKN2B-AS1]2233] | 47.75
mC*mA*mG*mU*mG*T*T*T*T*T*A*A*T*T*T*mU*mG*mU*mA*mG (mC*mA*mG*mU*mG*dT*dT*dT*dT*dT*dA*dA*dT*dT*dT*mU*mG*mU*mA*mG; antisense) [[CDKN2B-AS1]613] | 62.68
mC*mU*mU*mG*mU*G*A*A*A*A*G*A*T*T*A*mU*mC*mU*mU*mC (mC*mU*mU*mG*mU*dG*dA*dA*dA*dA*dG*dA*dT*dT*dA*mU*mC*mU*mU*mC) [[CDKN2B-AS1]2139] | 85.33
mG*mC*mA*mG*mU*C*T*C*C*A*T*G*T*C*C*mC*mA*mG*mG*mC (GCAGUCTCCATGTCCCAGGC; antisense; sugars from the 5' end m5 d10 m5, all phosphorothioate, methylation of C not given here) [[CDKN2B-AS1]2234] | 20.30
mG*mU*mC*mU*mC*C*A*T*G*T*C*C*C*A*G*mG*mC*mC*mU*mC (mG*mU*mC*mU*mC*dC*dA*dT*dG*dT*dC*dC*dC*dA*dG*mG*mC*mC*mU*mC) [[CDKN2B;AS1]2231] | 23.75
mG*mU*mG*mU*mC*C*T*T*C*A*T*G*C*T*T*mU*mG*mG*mA*mU (GUGUCCTTCATGCTTUGGAU; antisense; sugars from the 5' end m5 d10 m5, all phosphorothioate, methylation of C not given here) [[CDKN2B-AS1]1415] | 18.05
mG*mU*mG*mU*mU*T*T*T*A*A*T*T*T*T*G*mU*mA*mG*mA*mG (mG*mU*mG*mU*mU*dT*dT*dT*dA*dA*dT*dT*dT*dT*dG*mU*mA*mG*mA*mG) [[CDKN2B-AS1]611] | 23.63
mU*mA*mU*mU*mU*C*C*A*C*A*T*G*C*C*C*mA*mG*mU*mG*mU (mU*mA*mU*mU*mU*dC*dC*dA*dC*dA*dT*dG*dC*dC*dC*mA*mG*mU*mG*mU; antisense) [[CDKN2B-AS1]627] | 30.54

Same assay, conditions: HEK-TLR7; 100-500 nM oligo 20-50 min before R848 1 μg/ml

Substance | inhibition of R848 sensing by TLR7, short pre-treatment (in words)
mC*mU*mU*mG*mU*G*A*A*A*A*G*A*T*T*A*mU*mC*mU*mU*mC (mC*mU*mU*mG*mU*dG*dA*dA*dA*dA*dG*dA*dT*dT*dA*mU*mC*mU*mU*mC) [[CDKN2B-AS1]2139] | did not inhibit TLR7
